In US20210379153A1, “COMBINATION THERAPIES COMPRISING SIRP ALPHA-BASED CHIMERIC PROTEINS” (Shattuck Labs, Inc., priority 2018, published 2021):

Assays:
[1] = system: IRF-inducible ISG reporter in RAW264.7 cells; test: RAW264.7-ISG interferon reporter cells co-cultured with A20 lymphoma cells; assay type: cell-based, mouse; settings: monotherapy; 50 mg/mL proteins, 1 mg/mL anti-mCD20; 24 hours
Method: FIG. 8D: Macrophage:Toledo lymphoma co-cultures were harvested 2 hours into phagocytosis assays in the presence of rituximab ([…]), SIRPα-Fc-CD40L ([…]), or the combination of both agents. Macrophages were isolated by CD11b+ FACS, RNA was prepared, cDNA synthesized, and gene expression (IFNa1, IFNb1, CD80, and CD86) assessed by qRT-PCR. Fold change was calculated using DDCT and values obtained from the housekeeping gene ACTB, and the corresponding values from untreated samples. […] After 2 hours, co-cultures were isolated from tissue culture vessels and were stained with a fluorescently conjugated CD11b antibody to discriminate macrophages. Cells were then assessed by flow cytometry for the co-localization of fluorescent signal from both cells types. […] After 24-hours type I interferon induced luminescence was assessed using a luminometer. The maximum luminescence (RLU) from each experiment was set to 1, and all other samples were normalized accordingly. […]
Additionally, a macrophage reporter system was used to detect activation. […] After 24 hours, culture supernatant was collected and assessed for luciferase activity, which would indicate activation of a type I interferon response in the RAW-ISG reporter cells. […]

splenic dendritic cells = test: In vivo splenic dendritic cell activation; set-up: species or system mice; settings: mouse
Method: For each panel, the samples are (left to right): untreated, sheep RBCs, αCD47 (MIAP301), αSIRPα (P84), mSIRPα-Fc-CD40L, mSIRPα-Fc-CD40L (24 Hrs), and αCD47 (MIAP301) (24 hrs). FIG. 9B is a quantitation of in vivo dendritic cell activation corresponding to FIG. 9A. Shown is the absolute percent of CD4+ and CD8+ dendritic cells; also gated on CD11c and DC1R2. In FIG. 9B, for each panel, the samples are (left to right): untreated, sheep RBCs, αCD47 (MIAP301), αSIRPα (P84), SIRPα-Fc-CD40L (150 μg), SIRPα-Fc-CD40L (300 μg), SIRPα-Fc-CD40L (300 μg) (24 Hrs), and αCD47 (MIAP301) (24 hrs).
An in vivo assay to examine SIRPα/CD47 function in mice was describe in Yi et al., “Splenic Dendritic Cells Survey Red Blood Cells for Missing Self-CD47 to Trigger Adaptive Immune Responses. Immunity. 2015; 43(4):764-75) (the contents of which is incorporated by reference in its entirety). This assay detects the activation status of splenic dendritic cells in response to SIRPα/CD47 inhibitors or to infused sheep red blood cells (RBC).
After 6 or 24 hours, mice were euthanized and their spleens excised, dissociated, and assessed by flow cytometry for populations of activated CD4+ dendritic cells (DCs) (FIG. 9A, left panel) or CD8+ dendritic cells (FIG. 9A, right panel); both populations of dendritic cells were also positive for MHC II (I-Ab), CD11c, and DC1R2.

[2] = system: HCC827 (high EGFR-expressing lung cancer cell line); test: Macrophage engulfment of HCC827 cells; assay type: cell-based, human; settings: combination with anti-EGFR antibody (cetuximab); vs low EGFR-expressing tumor cells
[3] = system: HCC1954 (high Her2-expressing breast cancer cell line); test: Macrophage engulfment of HCC1954 cells; assay type: cell-based, human; settings: combination with anti-Her2 antibody (trastuzumab); vs low Her2-expressing tumor cells
WEHI3 tumors = test: WEHI3 tumor model; assay type: in vivo, BALB/C mice
Method: FIG. 20C: a similar CT26 experiment was initiated as described in FIG. 20A above, however mice were pre-treated on days −1, 1, and 10 with IP injections of 100 μg of either or both CD4/CD8 depleting antibodies. Mice were inoculated with CT26 tumors on day 0 and treated at a later starting date than FIG. 20A with mSIRPα-Fc-CD40L ARC on days 7, 9, and 11. […] In FIG. 20D and FIG. 20E, BALB/C mice were inoculated with WEHI3 tumors (FIG. 20D) or A20 tumors (FIG. 20E) subcutaneously on the rear flank, and then treated via IP injection with anti-CD20 or mSIRPα-Fc-CD40L on days 7, 9, and 11 (WEHI3) or days 10, 12, and 14 (A20); when tumors were established and reached approximately 57-60 mm^3. A cohort of mice were pre-treated with an interferon alpha receptor 1 (IFNAR1) blocking antibody ([…] by IP injection) on days −1, 1, and 10 (WEHI3) or on days −1, 1, and 13 (A20). FIG. 20F to FIG. 20H are graphs showing blockade of CD4, CD8, and IFNAR1. Peripheral blood analysis by flow cytometry of CD4 (FIG. 20F), CD8 (FIG. 20G), and IFNAR1 (FIG. 20H) depletion following depleting antibody treatment corresponding to FIG. 20C to FIG. 20E. Samples were normalized to untreated animals.
In a second set of experiments, a combination of an anti-IFNAR-1 antibody and the anti-CD20 antibody, the SIRPα(CD172a)-Fc-CD40L chimeric protein in combination with the anti-IFNAR-1 antibody, and a triple combination of the SIRPα(CD172a)-Fc-CD40L chimeric protein, the anti-IFNAR-1 antibody, and the anti-CD20 antibody were tested. […] The depletion of IFNAR1+ cells was confirmed at multiple time points in the peripheral blood by flow cytometry (FIG. 20H).

Substance: SIRPα-Fc-CD40L: generic name of the SIRPαECD-Fc-CD40LECD chimeric protein; human or murine version according to the experiment
- interferon gene-driven luciferase activity (type I IFN response) [1]: stimulates an increase in interferon gene-driven luciferase activity
- proportion of overall splenic DCs vs antibody treated groups (splenic dendritic cells): higher proportion of overall splenic DCs
- macrophage engulfment of tumor cells [2]: more effective
- macrophage engulfment of tumor cells [3]: more effective
- tumor size (WEHI3 tumors; combination with anti-CD20 antibody): reduced tumor size greater than either component alone
- tumor reduction (WEHI3 tumors; combination with anti-IFNAR-1 antibody vs chimeric protein alone): less tumor reduction
- tumor reduction (WEHI3 tumors; triple combination with anti-CD20 and anti-IFNAR-1 antibodies vs chimeric protein plus anti-CD20): less tumor reduction
